One series has as its system myocardial infarction. The conditions noted are these: in vivo; cited from earlier work.
For a further series, the target named is T1, human P4H enzyme (Homo sapiens, UniProt P13674).
T1 construct: made in house; host or cells: E. coli Origami2(DE3)
The series is described as follows: P4H enzymatic activity, coupled succinyl CoA synthase / MLG phosphate assay. Format: biochemical. The settings on record: 50 nM P4H, 100 uM 2-oxoglutarate, 45 min at 25° C., n=2, FIG. 1. From the text: Human recombinant P4H was expressed in E. coli. Briefly, DNA encoding the signal sequence of P4H was cloned into pET28_N-His_TEV, the resulting plasmid pET28_N-His_TEV_P4HA1/PDI was transferred to E. coli Origami2(DE3) to co-expressed. The enzyme obtained was purified with MonoQ ion-exchange column, TEV digested and confirmed by MS, passed through Histrap HP column, finally purified with Hiload16/60 superdex 200 column.
The measurement of the enzymatic activity of purified P4H zymoprotein and the assay of the influence of the compound to the enzymatic activity were performed at the following coupling enzymatic reaction system: 100 mM Tris (pH7.0), 0.1 mM (NH4)2Fe(SO4)2, 0.1 mM ascorbic acid, 0.2 mM CoA, 0.2 mM ATP, 0.5 uM succinyl CoA synthase, 100 uM 2-oxoglutarate, 100 uM (Pro-Pro-Gly)10peptide, 50 nM P4H enzyme, 50 ul total. After 45 min reaction at 25° C., 10 ul MLG R1 was added and reacted for 10 min, 10 ul MLG R2 was added and reacted for 20 min. P4H catalyst 2-oxoglutaric acid and polypeptide with coenzyme and suitable enzyme reaction environment to give product succinic acid. The product succinic acid then produced succinyl CoA and phosphoric acid with the action of succinyl CoA synthase. The level of generated phosphoric acid could be measured by MLG, which reflects the level of P4H. The generated green product (MG+)(H2PMo12O40) was measured at OD 630 nm. […]

A short description of series [1]: Concentration of compound 16c and 9c in liver after PO dosing of compound 27. The conditions noted are these: rat; for concentration at 0.25 h / concentration at 0.75 h / concentration at 8 h / concentration at 24 h: both sexes, Wistar, liver; for concentration at 0.25 h: 0.25 h after oral administration of compound 27 (39 mg/kg); for concentration at 0.75 h: 0.75 h after oral administration of compound 27 (39 mg/kg); for concentration at 8 h: 8 h after oral administration of compound 27 (39 mg/kg); for concentration at 24 h: 24 h after oral administration of compound 27 (39 mg/kg); for Conversion of prodrug in vivo: after PO dosing of compound 27. The format is in vivo, Wistar rats. The method, then:
16 Wistar rats (200±20 g) were divided into 4 groups randomly, female and male each half in each group, ate and drank freely before the experiment. After PO dosing of compound 27 (39 mg·kg^−1), rats were sacrificed at each time point 15 min, 45 min, 8 h, 24 h. Liver samples were collected, washed off blood and contents with saline, cut into small pieces, and stirred evenly. 1 g was weighed. 1 mL Methanol/water was added. After homogenated, additional 1 mL methanol/water was added. The mixture was sonicated for 15 seconds, centrifuged (4500 rpm) for 10 minutes. The upper clear solution was tested using LC-MS/MS method to give the concentration of compound 16c and 9c in liver at different time points after administration (table 2).

Series [2] in a line: In-vivo pharmacokinetics in plasma of rats. Also noted: species or system Wistar rats. The method, then:
Wistar rats (200±20 g) were divided into 2 groups, 6 each, half female and half male in each group, ate and drank freely. The first group was given compound 16c 3 mg·kg^−1 caudal-intravenously. The second group was orally administered disodium salt of compound 27 (39 mg·kg^−1). Blood (0.3 mL) was collected from retroorbital vein at time point 0 h, 0.08 h, 0.17 h, 0.33 h, 0.5 h, 0.75 h, 1 h, 1.5 h, 2 h, 3 h, 5 h, 7 h, placed into cold heparinized Eppendorf tubes. The samples were centrifuged at 4° C. (15000 rpm) for 5 min. Transfer 100 μL plasma sample to −80° C. freezer for test.
Quantitative LC-MS/MS analysis methods of compound 9c and prodrug 16c in plasma were set up, using diazepam and mildronate as internal standard, respectively. (Prodrug 27 was not detected under experimental condition from plasma) the plasma sample was tested and analyzed. (result see in Table 1 and FIG. 2)
Oral Bioavailability was calculated according to compound 16c in plasma. Area under concentration-time curve (AUC) of PO dosing was divided by AUC of iv dosing of same amount of drugs, expressed as absorption percentage: Bioavailability (F)=AUCpo·Miv/AUCiv·Mpo×100%. Wherein, Miv means the molar concentration of drugs by iv dosing, and Mpo means the molar concentration of drugs by PO dosing. The AUC0-t of compound 16c in plasma

Series [3] concerns BDL rats having liver fibrosis. In words: Bile Duct Ligation induced liver fibrosis model in rats. The format is in vivo, Wistar rats. From the text: This experiment used Bile Duct Ligation to induce liver fibrosis model in rats. Treatment of BDL rats with PO dosing prodrug 27 was studied.
Briefly, Wistar rats (200±20 g) were divided into 3 groups, half female and half male in each group:
SHAM group: 6 rats were anaesthetized, the abdominal skin was shaved and sterilized regularly, the common bile duct was exposed by an upper abdominal midline incision with sterile operation. Muscle and skins were sutured separately.
liver fibrosis MODEL group: 12 rats were anaesthetized, the abdominal skin was shaved and sterilized regularly, the common bile duct was exposed and ligated by an upper abdominal midline incision with sterile operation. Muscle and skins were sutured separately.
Dosing group: 12 rats were anaesthetized, the abdominal skin was shaved and sterilized regularly, the common bile duct was exposed and ligated by an upper abdominal midline incision with sterile operation. Muscle and skins were sutured separately. After operation, disodium salt of compound 27 (30 mg/kg) was dissolved in water and dosed orally to the rats once per day test indexes:
After 2 weeks, measure the ALT and AST of serium and liver homogenate
After 2 weeks, rats were sacrificed, and liver performed HE staining and Masson staining.

The subject of another series is hepatic stellate cells. The conditions noted are these: cited from earlier work.
For series [4] the following is noted: cited from earlier work.
The mark [5] stands for this setting: both sexes, rat, compound 16c in plasma after compound 16c IV 3 mg/kg, Wistar rats.

T1 sequence (P13674 18-534): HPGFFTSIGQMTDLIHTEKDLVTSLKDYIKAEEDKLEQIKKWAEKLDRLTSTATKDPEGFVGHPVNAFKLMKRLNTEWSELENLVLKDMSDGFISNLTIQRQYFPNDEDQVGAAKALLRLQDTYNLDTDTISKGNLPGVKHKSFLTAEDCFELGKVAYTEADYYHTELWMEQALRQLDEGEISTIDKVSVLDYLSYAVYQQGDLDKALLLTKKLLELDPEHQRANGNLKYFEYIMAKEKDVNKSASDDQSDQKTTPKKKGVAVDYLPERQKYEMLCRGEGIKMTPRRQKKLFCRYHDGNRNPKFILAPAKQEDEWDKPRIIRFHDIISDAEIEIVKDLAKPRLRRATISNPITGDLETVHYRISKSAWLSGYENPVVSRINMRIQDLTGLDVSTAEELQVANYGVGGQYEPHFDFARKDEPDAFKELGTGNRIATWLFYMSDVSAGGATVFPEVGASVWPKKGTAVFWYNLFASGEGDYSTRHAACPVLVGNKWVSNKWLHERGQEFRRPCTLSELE
T1 sequence (P07237 18-508 partner): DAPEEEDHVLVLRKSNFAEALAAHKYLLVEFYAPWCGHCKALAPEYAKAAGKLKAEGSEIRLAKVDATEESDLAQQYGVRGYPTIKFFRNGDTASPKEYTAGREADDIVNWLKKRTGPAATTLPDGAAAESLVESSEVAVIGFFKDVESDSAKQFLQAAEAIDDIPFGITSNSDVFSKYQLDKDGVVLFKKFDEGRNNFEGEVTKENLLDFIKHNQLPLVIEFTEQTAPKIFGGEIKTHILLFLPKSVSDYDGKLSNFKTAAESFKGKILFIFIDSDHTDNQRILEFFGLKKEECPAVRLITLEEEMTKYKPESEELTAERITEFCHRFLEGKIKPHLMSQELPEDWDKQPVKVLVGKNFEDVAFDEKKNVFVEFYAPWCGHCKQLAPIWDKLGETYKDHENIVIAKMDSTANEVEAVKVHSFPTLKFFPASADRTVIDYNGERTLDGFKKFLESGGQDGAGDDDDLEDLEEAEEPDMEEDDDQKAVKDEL

`O=C(O)c1c[nH]c2c(ccc3cccnc32)c1=O` [FG-041, 1,4-dihydrophenanthrol-4-one-3-carboxylic acid]: the “myocardial infarction in animal experiment” value with myocardial infarction was “prevent myocardial infarction”.
`O=P(O)(O)c1cnc2c(ccc3c(O)ccnc32)c1` [Compound 9c, 7-hydroxy-1,10-phenanthrolin-3-yl phosphonic acid] showed a concentration for half-maximal inhibition (IC50) against human P4H enzyme of 8.1 µM. In series [1], this compound registered a concentration at 0.25 h of 16.1 ng/g, a concentration at 0.75 h of 64.2 ng/g, a concentration at 8 h of 44.7 ng/g and a concentration at 24 h of 3.55 ng/g.
Consider `O=P1(c2cnc3c(ccc4c(O)ccnc43)c2)OCC[C@@H](c2cccc(Cl)c2)O1` (stereo partly drawn) [Compound 16c, (4S)-4-(3-chlorophenyl)-2-(7-hydroxy-1,10-phenanthrolin-3-yl)-1,3,2-dioxaphosphinan-2-one], for which the AUC0-t of compound 16c in plasma in series [2] (after compound 16c 3 mg/kg intravenously) worked out at 2060 ng·h/mL. Also, in series [2] (setting [5]), the total exposure AUC(0-inf) was 2140 ng·h/mL and the AUC(0-t) came to 2060 ng·h/mL. In series [2] (both sexes, rat, compound 16c in plasma after compound 16c IV 3 mg/kg, Wistar rats, read-out: Cmax (peak concentration in plasma)), the Cmax stood at 1620 ng/mL. For the same compound, in series [2] (both sexes, rat, compound 16c in plasma after compound 16c IV 3 mg/kg, Wistar rats, read-out: t1/2 (half life of drug in plasma) (converted)), the half-life is 1.5 h. Further, in series [1], the concentration at 0.25 h was determined as 522 ng/g, the concentration at 0.75 h was determined as 662 ng/g, the concentration at 8 h is 584 ng/g and the concentration at 24 h worked out at 50.9 ng/g. Also, the “Conversion of prodrug in vivo” value in series [1] was “converted to compound 9c in liver”.
For the compound `O=c1ccn(COP(=O)(O)O)c2c1ccc1cc(P3(=O)OCC[C@@H](c4cccc(Cl)c4)O3)cnc12` (stereo partly drawn) [Compound 27, (3-(4S-4-(3-chlorophenyl)-1,3,2-dioxaphosphinan-2-one-2-yl)-1,10-phenanthrolin-7-one)-10(7H)-methyl phosphoric acid], in series [2] (LC-MS/MS, after PO dosing 39 mg/kg), the “Detection of prodrug 27 in plasma” value is recorded as “not detected”. The “Conversion of prodrug in vivo” value in series [1] is on record as “converted to compound 16c in rat”. Moreover, the ALT in serum in series [3] (BDL rats, 30 mg/kg PO once per day, 2 weeks, MODEL 144.4 ± 15.94, SHAM 67.1 ± 5.45) was found to be 74.4 ± 17.82 IU/L. Also, the AST in serum in series [3] (BDL rats, 30 mg/kg PO once per day, 2 weeks, MODEL 207.2 ± 30.96, SHAM 67.7 ± 4.67) turned out to be 87.2 ± 12.51 IU/L. For the same compound, the “H&E staining of rat liver” value in series [3] (BDL, PO 30 mpk, 2 weeks, FIG. 5) is on record as “varies the pathological changes of hepatic tissue”. Further, the “ALT and AST of the serium and liver homogenate versus model group” value in series [3] (after 14 days of administration, P<0.01) is “decreased significantly”. The same compound had an ALT in liver in series [3] (liver homogenate, BDL rats, 30 mg/kg PO once per day, 2 weeks, MODEL 136.8 ± 16.48) of 76.4 ± 11.35 IU/L. Also, the AST in liver in series [3] (liver homogenate, BDL rats, 30 mg/kg PO once per day, 2 weeks, MODEL 198.75 ± 27.70) was determined as 91.42 ± 8.79 IU/L.
With `COCCNC(=O)c1ccnc(C(=O)NCCOC)c1` [HOE077], in the series with hepatic stellate cells, the “activation of hepatic stellate cells” value was “inhibits”, the “expression of procollagen mRNA” value is “inhibits”, the “hepatic stellate cells proliferation” value was “reduces” and the “synthesis of total protein of cell” value is listed as “no effect”. For the same compound, the “side effects in clinical trials” value in series [4] is “severe side effects (cataract)”.

As a reminder, the IC50 is the concentration that gives 50% inhibition. The low end stands for higher potency, the high end for lower potency. As a reminder, the AUC(0-inf) is total exposure, with the tail of the curve extrapolated. A higher AUC(0-inf) goes with more exposure. Broadly, the AUC(0-t) is the area under the concentration-time curve up to a stated or last time point. A high value points to high exposure.

(Values after patent US10072035B2, “Phenanthroline phosphonic acid derivative and preparation method therefor and application thereof” (Guangzhou Beryl Therapeutics, Inc, priority 2014, dated 2018).)
